Results: patent publication US7414042B2, “Method and composition for selectively inhibiting melanoma” (The Board of Trustees of The University of Illinois, priority 1995, dated 2008)
In brackets after ≈: the same amount, converted by molar mass. Entries after “also recorded” stand apart in the source; their conditions may differ.

Key:
[1] = tested on: MEL-2 (melanoma); assay: Cytotoxicity against cultured human melanoma cells (SRB); assay type: cell-based
Experimental: (§1) The plates were incubated for three days. […] Dose response studies were performed to generate ED50 values.

[2] = tested on: human lymphocytes; assay: Formation of the 50 Kbp DNA fragment in normal cells; assay type: cell-based; settings: 2 and 20 μg/ml, time-course
[3] = tested on: human melanoma cells (MEL-2); assay: In vivo activity against unestablished MEL-2 tumors in athymic mice; set-up: species or system athymic (nude) mice
Experimental: To test the in vivo ability of betulinic acid to serve as an antineoplastic agent against malignant melanoma, a series of studies was performed with athymic (nude) mice injected subcutaneously with human melanoma cells (MEL-2). The initial study investigated the activity of betulinic acid against unestablished tumors. Treatment with betulinic acid began on day 1, i.e., 24 hours, following tumor cell injection. […] Such a discovery is important for individuals who are predisposed to melanoma due to hereditary or environmental factors.
In particular, the data plotted in FIG. 1 was derived from experiments wherein four week old athymic mice were injected subcutaneously in the right flank with 3.0×10^8 UISO MEL-2 cells. UISO MEL-2 is a cell line derived from metastatic melanoma from human pleural fluid. Drug treatment was initiated on the day following tumor cell injection and continued every fourth day for a total of six doses. Four control animals received 0.5 ml intraperitoneal (IP) of PVP control solution, while treated animals (4 per group) received 50, 250 or 500 mg/kg/dose IP betulinic acid/PVP in deionized H2O. Betulinic acid was coprecipitated with PVP to increase solubility and bioavailability. The mice were weighed, and the tumors measured with a micrometer every other day throughout the study. […]

[4] = tested on: MEL-2 cells; assay: Formation of the 50 Kbp DNA fragment (apoptosis), field-inversion gel electrophoresis; assay type: cell-based, human
Source text: Therefore, an important feature of the present invention is a method of analyzing and quantifying the formation of the 50 Kbp fragment as a biomarker for induction of apoptosis in human cancer cell lines. This method comprises treatment of cells in culture, followed by analysis of the total cellular DNA content using agarose field-inversion gel electrophoresis. Under these conditions, the 50 Kbp fragment is resolved as a diffuse band. The fraction of the total cellular DNA represented by the 50 Kbp fragment is determined by densitometry on the contour of this band.
To investigate the ability of betulinic acid to induce apoptosis, the above-described method was adapted for use with the MEL-2 cell line. […]
With further respect to FIG. 3A, cultured MEL-2 cells (10^6 cells inoculated per 25 cm^2 flask) were treated with […] betulinic acid (200 μg/ml DMSO, diluted 1:100 in media) for 24, 32, 48, 56 and 72 hours. […] Samples were analyzed on a 1% agarose gel in a Hoefer HE100 SuperSub apparatus cooled to 10° C. by a circulating water bath. […]
Electrophoresis was performed at 172 volts for a total of 18 hours using two sequential field inversion programs with pulse ramping. The DNA/ethidium bromide fluorescence was excited on a UV transilluminator and photographed using Polaroid type 55 P/N film. The negative was analyzed using a PDI scanning densitometer and Quantity One software. […]

[5] = tested on: human melanoma and nonmelanoma cancer cell lines; assay: Cytotoxicity profile across the panel of human cancer cell lines; settings: all Table 1 cell lines other than MEL-2
Experimental: In the following Table 1, the extracted betulinic acid and the other pure compounds were tested for cycotoxity against the following cultured human cell lines: A431 (squamous cells), BC-1 (breast), COL-2 (colon), HT-1080 (sarcoma), KB (human oral epidermoid carcinoma), LNCaP (prostate), LU-1 (lung), MEL-2 (melanoma), U373 (glioma) and ZR-75-1 (breast).
Cytotoxicity of the crude extracts and purified compounds was determined in a number of cultured human cancer cell lines. The cells were cultured in appropriate media and under standard conditions. To maintain logarithmic growth, the media were changed 24 hours prior to cytotoxic assays. On the day of the assay, the cells were harvested by trypsinization, counted, diluted in media, and added to 96-well plates containing test compounds dissolved in DMSO; the final DMSO concentration was 0.05%.
The plates were incubated for three days. Following the incubation period, the cells were fixed and stained with sulforhodamine B (SRB) dye. The bound dye was liberated with Tris base, and the OD515 was measured on an ELISA reader. The growth of the betulinic acid-treated cells was determined by the OD515 values, and the growth was compared to the OD515 values of DMSO-treated control cells. Dose response studies were performed to generate ED50 values.
The biological evaluation of the derivatives focused on the activity against human melanoma cell lines. In particular, the following betulinic acid derivatives were prepared and tested for cytotoxicity profile against human melanoma cell lines and against a number of selected nonmelanoma cell lines.

[6] = tested on: Walker 256 murine carcinosarcoma; settings: cited from earlier work
[7] = tested on: LOX melanoma cell line; assay: Cytotoxicity of betulinic acid derivatives; assay type: cell-based, human; settings: Tables 2-6
Experimental: as §1

[8] = tested on: MEL-8 melanoma cell line; assay: Cytotoxicity of betulinic acid derivatives; assay type: cell-based, human; settings: Tables 2-6
Experimental: as §1

[9] = tested on: MEL-6 melanoma cell line; assay: Cytotoxicity of betulinic acid derivatives; assay type: cell-based, human; settings: Tables 2-6
Experimental: as §1

[10] = tested on: MALE-3M melanoma cell line; assay: Cytotoxicity of betulinic acid derivatives; assay type: cell-based, human; settings: Tables 2-6
Experimental: as §1

[11] = tested on: human melanoma cells (MEL-2); assay: In vivo activity against established MEL-2 melanomas in athymic mice; settings: treatment from day 13, IP every third day; betulinic acid/PVP 250 mg/kg/dose, DTIC 4 mg/kg/dose
Experimental: Next, in vivo testing of betulinic acid was performed on established melanomas. In this study, treatment was withheld until day 13, by which time a palpable tumor mass was present in all mice.
In particular, with respect to FIG. 2, four-week-old athymic mice were injected with 5×10^8 MEL-2 cells subcutaneously in the right flank. Four treatment groups of five mice each were studied. In one group, the mice received 250 mg/kg/dose of IP betulinic acid/PVP every third day for six total doses initiated the day following tumor cell injection. The control group received 0.5 ml IP saline. A DTIC treatment group received 4 mg/kg/dose IP DTIC every third day from day 13 to day 28 of the study. The betulinic acid treatment group received 250 mg/kg/dose IP betulinic acid/PVP every third day from day 13 to day 27. The control and DTIC-treated mice were sacrificed and autopsied on day 36 due to their large tumor burden. The remaining mice were sacrificed and autopsied on day 41.

[12] = 200 and 400 mg/kg doses; cited from earlier work
[13] = Solubility in water; assay type: physicochemical; settings: listed as betulinic acid

C=C(C)[C@@H]1CC[C@]2(C(=O)O)CC[C@]3(C)[C@H](CC[C@@H]4[C@@]5(C)CC[C@H](O)C(C)(C)[C@@H]5CC[C@]43C)[C@@H]12 [Compound 10, 3β-hydroxy-lup-20(29)-ene-28-oic acid]
IC50 ([1]; Homo sapiens, MEL2, 72 h, three days incubation, SRB, Table 1 and text, read-out: ED50 MEL-2): ~2 µg/mL (≈ 4.38 µM) | ED50 (Std. Dev.) MEL-2 ([1]; derivatives, Tables 2-6): 1.2 (0.1) μg/mL | ED50 MEL-2 ([1]; three days incubation, SRB, Table 1 and text, listed as Betulinic acid): 2.0 µg/mL (≈ 4.38 µM) | formation of the 50 Kbp fragment in human lymphocytes [2]: did not demonstrate formation of the 50 Kbp fragment | tumor development, MEL-2, treatment from the day following cell injection (FIG. 2) ([3]; 250 mg/kg/dose IP betulinic acid/PVP every third day, six doses, p=0.0001): significantly inhibited tumor development | inhibition of tumor growth, nonestablished MEL-2 tumors (FIG. 1) ([3]; 50, 250, 500 mg/kg/dose IP as betulinic acid/PVP, every fourth day, six doses from day 1, p 0.001 each dose versus control): effective inhibition of tumor growth; also recorded: greater inhibition of tumor growth at the highest dose | treatment period at maximum induction of the 50 Kbp fragment ([4]; 2 μg/ml betulinic acid (FIG. 3A)): 56 h | ED50 of the apoptotic response (50 Kbp fragment) ([4]; MEL-2 cells treated for 56 hours (FIG. 3B)): about 1.5 μg/ml | ED50, other cancer cell lines tested [5]: greater than 20 μg/ml | antitumor activity, Walker 256, subsequent report ([6]; 400 mg/kg): inactive | antitumor activity, Walker 256 ([6]; 300 and 500 mg/kg body weight): dose-dependent activity | ED50 (Std. Dev.) LOX [7]: >20 µg/mL | ED50 (Std. Dev.) MEL-8 [8]: 1.0 (0.3) μg/mL | ED50 (Std. Dev.) MEL-6 [9]: 13.2 (1.5) μg/mL | ED50 (Std. Dev.) MALE-3M [10]: 17.6 (0.5) μg/mL | tumor growth, established MEL-2 tumors (FIG. 2) [11]: successfully abrogated tumor growth; also recorded: significantly less than that observed in the DTIC-treated animals | activity in Hippocratic screen [12]: inactive | solubility in water [13]: poor solubility in water; also recorded: low water solubility
